Experimental data: PMC9555642 (PLoS ONE, 2022)

Legend:
[1] = system: COPD HBEC ALI cultures; experiment: AB/PAS staining and quantification of cellular features from IHC sections, TNF challenge; format: cell-based, human
Experimental: Eight days post-treatment, HBEC ALI-cultures were fixed in 4% paraformaldehyde for fifteen minutes and washed three times in PBS. Dehydration in ethanol and xylene followed by paraffin (Merck, New Jersey, USA) infiltration was done with a short program for biopsies (1 hour 55 minutes) on a Microm STP 120 Spin Tissue Processor (Thermo Fisher Scientific). Cell layers were embedded in paraffin and 4 μm thick sections were made using a Leica RM2165 microtome (Leica, Wetzlar, Germany). Alcian Blue/Periodic Acid-Schiff (AB/PAS) with Haematoxylin staining were performed using standard protocols on a Leica ST5020. After staining, the sections were dehydrated in ethanol and xylene, mounted with Pertex mounting medium (Histolab, Göteborg, Sweden) and scanned with a Aperio Scanscope slide scanner (Leica Biosystems, Buffalo Grove, USA).
IHC images were analyzed in HALO v3.1 (Indica Labs). For all analyses, images were annotated manually to exclude out of focus and damaged areas, and a random forest classifier was applied to intact areas of the sections to detect epithelial areas. All following analyses were done in epithelial areas only. For goblet cell counting, algorithm CytoNuclear 2.0.9 was used to segment cells based on nuclear staining and categorize them as AB/PAS (mucin) positive and negative cells based on cytoplasmic AB staining. Goblet cell counting was represented as the percentage of AB positive cells of total cells.
To measure epithelial thickness, the apical and basal sides of the epithelium in the sections were manually delineated using a pen annotation tool. Distance between paired apical and basal annotations was measured every 10 μm along the epithelium, and recorded in sequence as epithelial thickness.
To measure intraepithelial and intercellular AB staining, algorithm Area Quantification v2.1.7 was used. Two thresholds were applied to capture AB staining: a lower one to detect all AB staining in both goblet cells and intercellular areas, and a higher one to detect the stronger AB staining inside goblet cells only. Intercellular AB area was calculated by subtracting goblet AB staining (higher threshold) from total AB staining (by lower threshold).

[2] = biological target: T1, HDAC4 (Homo sapiens, UniProt P56524); experiment: HDAC enzymatic activity (Eurofins); format: biochemical; settings: Class IIA; ACY-1083 mean of two separate measurements, Ricolinostat and Tubastatin A one measurement
T1 construct: purchased Eurofins Pharma Discovery Services 2493

[3] = biological target: T2, Sigma-1 receptor (Homo sapiens, UniProt Q99720); experiment: Secondary pharmacology panel (Eurofins); format: binding
T2 construct: purchased Eurofins Pharma Discovery Services
Experimental: (§1) Second pharmacology screening was performed at Eurofins Pharma Discovery Services in a panel of 190 in vitro radioligand binding and enzyme assays covering a diverse set of enzymes, receptors, ion channels, and transporters.

[4] = system: COPD HBEC ALI cultures; experiment: TNF challenge model in ALI, TEER and FITC-dextran permeability; format: cell-based, human; settings: 10 μM, four COPD donors
[5] = system: COPD HBEC ALI cultures; experiment: RNA analysis (qPCR), TNF challenge; format: cell-based, human
Experimental: TEER and permeability were measured after seven days.
To study transcriptional changes, RNA purification was carried out using the RNeasy Plus 96 kit (74192) (Qiagen, Venlo, The Netherlands) according to manufacturer’s protocol. The liquid was collected and frozen at –80°C until further analysis. RNA was quantified and cDNA synthesis was performed according to standard procedures using High-capacity cDNA Reverse Transcription Kit (4368813) (ThermoFisher, Waltham, MA, US). Real-time polymerase chain reaction (qPCR) was done using validated TaqMan® Gene Expression Assays (ThermoFisher, Waltham, MA, US), IL8 (Hs00174103_m1), CCL2 (Hs00234140_m1), CXCL10 (Hs00171042_m1), MMP9 (Hs00957562_m1), IL1B (Hs01555410_m1), MUC5AC (Hs01365616_m1), MUC5B (Hs00861595_m1) with TaqMan Fast Advanced Master Mix (4444557) (Applied Biosystems, Foster City, CA, US). Samples were run in triplicates and analyzed on the QuantStudio^TM 7 Flex Real-Time PCR 384-well System (ThermoFisher Waltham, MA, US). Data was normalized to the housekeeping genes GAPDH (Hs99999905_m1), and RPLP0 (Hs99999902_m1) and delta-delta CT values were plotted (fold change to DMSO).

[6] = Secondary pharmacology panel of >190 in vitro radioligand binding and enzyme assays; settings: hits: HDAC5, HDAC7, COX2 and DAT
Experimental: as §1

[7] = high concentrations of TNF, 8 days
[8] = unchallenged cells and 5 ng/ml TNF

T1 sequence (P56524 whole entry): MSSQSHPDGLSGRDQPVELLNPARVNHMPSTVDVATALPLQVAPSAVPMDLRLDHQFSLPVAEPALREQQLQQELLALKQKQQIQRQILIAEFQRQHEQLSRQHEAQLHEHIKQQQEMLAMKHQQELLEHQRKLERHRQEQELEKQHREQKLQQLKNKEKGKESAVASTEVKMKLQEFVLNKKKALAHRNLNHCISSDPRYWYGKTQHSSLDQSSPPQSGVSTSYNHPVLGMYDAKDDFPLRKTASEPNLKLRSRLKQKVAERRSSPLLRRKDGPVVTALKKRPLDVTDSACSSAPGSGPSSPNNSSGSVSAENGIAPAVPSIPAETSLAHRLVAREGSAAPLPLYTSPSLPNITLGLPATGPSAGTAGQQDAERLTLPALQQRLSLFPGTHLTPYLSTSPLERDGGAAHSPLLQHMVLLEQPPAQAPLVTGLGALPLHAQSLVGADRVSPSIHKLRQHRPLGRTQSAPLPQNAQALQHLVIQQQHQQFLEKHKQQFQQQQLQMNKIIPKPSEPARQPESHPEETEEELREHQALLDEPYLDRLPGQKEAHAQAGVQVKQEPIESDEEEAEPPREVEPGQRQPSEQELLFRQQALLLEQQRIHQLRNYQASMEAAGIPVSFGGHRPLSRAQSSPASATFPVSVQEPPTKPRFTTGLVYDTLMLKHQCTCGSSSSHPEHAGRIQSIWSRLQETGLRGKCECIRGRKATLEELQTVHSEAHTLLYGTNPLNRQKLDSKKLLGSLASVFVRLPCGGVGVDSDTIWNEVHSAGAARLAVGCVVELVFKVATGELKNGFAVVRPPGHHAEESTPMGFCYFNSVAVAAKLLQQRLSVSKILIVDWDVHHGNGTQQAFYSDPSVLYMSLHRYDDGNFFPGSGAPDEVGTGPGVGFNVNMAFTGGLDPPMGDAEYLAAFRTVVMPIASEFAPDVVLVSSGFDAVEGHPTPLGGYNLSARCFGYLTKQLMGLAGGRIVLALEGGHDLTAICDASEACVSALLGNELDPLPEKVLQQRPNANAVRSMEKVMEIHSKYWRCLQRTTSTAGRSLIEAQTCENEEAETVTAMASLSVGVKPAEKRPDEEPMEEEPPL
T2 sequence (Q99720 whole entry, species assumed): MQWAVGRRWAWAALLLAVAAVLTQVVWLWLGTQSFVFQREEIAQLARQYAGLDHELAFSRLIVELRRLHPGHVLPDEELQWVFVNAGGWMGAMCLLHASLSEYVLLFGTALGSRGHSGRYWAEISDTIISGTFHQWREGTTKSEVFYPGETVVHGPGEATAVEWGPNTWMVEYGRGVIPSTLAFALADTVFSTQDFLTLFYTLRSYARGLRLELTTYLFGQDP

- IC50 [2]: 12.5 µM
- IC50 [3]: 17 µM
Substance: ACY-1083
- intraepithelial and intercellular AB area ([1]; TNF 20 ng/ml + ACY-1083, p<0.0001): reduced to the no-TNF level
- percentage of goblet cells ([1]; TNF 20 ng/ml + ACY-1083, vs no-TNF DMSO control or TNF DMSO culture): increased but did not differ significantly
- epithelial thickness variation (variance in height) ([1]; TNF-challenged wells, four donors, p<0.001): smaller
- goblet cell percentage ([1]; only ACY-1083 vs no-TNF DMSO): No difference
- TEER vs DMSO control ([4]; TNF 0, 5, 20 and 50 ng/mL, after seven days): higher TEER at all concentrations of TNF
- paracellular permeability vs DMSO control ([4]; TNF 5, 20 and 50 ng/mL): lower permeability at 5, 20 and 50 ng/mL TNF
- CXCL10 transcripts [5, 7]: significantly reduced
- IL1B transcripts [5, 7]: significantly reduced
- IL6 transcripts [5, 7]: significantly reduced
- MMP9 transcripts [5, 7]: significantly reduced
- MUC5AC mRNA ([5]; higher concentrations of TNF): no significant effect
- MUC5B mRNA ([5]; higher concentrations of TNF): no significant effect
- MUC5AC mRNA [5, 8]: reduced baseline production
- MUC5B mRNA [5, 8]: reduced baseline production
- hits below 10 μM in HDAC isoform panel and secondary pharmacology safety panels [6]: 4
